Results: article PMC9270327 (Communications Biology, 2022)
Like-named read-outs stand apart in the source and are kept apart here.

Key:
[1] = biological target: T1, recombinant human matriptase (Homo sapiens, UniProt Q9Y5Y6); test: Enzyme inhibition assay with purified matriptase (Ki, dose-response); assay type: biochemical; conditions: for matriptase activity, Mean (Fig. 2b): normalized, 0 nM = 100
T1 construct: purchased R&D Systems (Minneapolis, MN, USA)
T1 sequence (Q9Y5Y6 1-855): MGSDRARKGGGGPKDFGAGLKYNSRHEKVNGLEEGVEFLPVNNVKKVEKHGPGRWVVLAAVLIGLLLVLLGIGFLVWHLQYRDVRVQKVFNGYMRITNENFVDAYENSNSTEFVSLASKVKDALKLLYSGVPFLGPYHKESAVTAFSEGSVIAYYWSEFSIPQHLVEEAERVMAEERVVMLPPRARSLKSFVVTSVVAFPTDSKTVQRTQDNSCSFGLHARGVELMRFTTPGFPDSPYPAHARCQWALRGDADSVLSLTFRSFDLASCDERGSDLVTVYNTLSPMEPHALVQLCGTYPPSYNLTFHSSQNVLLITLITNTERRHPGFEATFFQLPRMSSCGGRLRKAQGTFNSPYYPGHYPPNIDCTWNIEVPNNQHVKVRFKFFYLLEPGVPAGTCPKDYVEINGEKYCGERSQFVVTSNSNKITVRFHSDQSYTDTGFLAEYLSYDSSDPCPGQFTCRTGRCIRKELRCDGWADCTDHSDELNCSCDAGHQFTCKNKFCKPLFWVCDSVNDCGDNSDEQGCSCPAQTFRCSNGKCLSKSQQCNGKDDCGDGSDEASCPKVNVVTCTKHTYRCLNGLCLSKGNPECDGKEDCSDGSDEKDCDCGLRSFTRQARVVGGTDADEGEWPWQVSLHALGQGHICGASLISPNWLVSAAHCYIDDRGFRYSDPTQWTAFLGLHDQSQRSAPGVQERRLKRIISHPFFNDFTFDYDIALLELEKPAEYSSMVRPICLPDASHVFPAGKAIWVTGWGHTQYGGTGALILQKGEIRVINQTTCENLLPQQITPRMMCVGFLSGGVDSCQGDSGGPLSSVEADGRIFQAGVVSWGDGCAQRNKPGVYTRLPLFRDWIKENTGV

[2] = biological target: T2, recombinant human thrombin (Homo sapiens, UniProt P00734); test: Enzyme inhibition assay with purified thrombin (Ki, dose-response); assay type: biochemical; conditions: for thrombin activity, Mean (Fig. 2c): normalized, 0 nM = 100
T2 construct: purchased R&D Systems (Minneapolis, MN, USA)
From the text: (§1) Recombinant human TMPRSS2 was purchased from Creative BioMart (New York, USA) or LSBio (Seattle, USA), factor Xa was obtained from Bio-Techne GmbH (Wiesbaden, Germany). Recombinant human thrombin and matriptase protein were purchased from R&D Systems (Minneapolis, MN, USA).

factor Xa = biological target: T3, factor Xa (Homo sapiens, UniProt P00742); test: Enzyme inhibition assay with purified factor Xa (Ki, dose-response); assay type: biochemical; conditions: for factor Xa activity, Mean (Fig. 2d): normalized, 0 nM = 100
T3 construct: purchased Bio-Techne GmbH (Wiesbaden, Germany)
From the text: as §1

[3] = test system: lentiviral pseudoparticles carrying SARS-CoV-2 Alpha (B.1.1.7) spike, Caco-2 cells; assay type: cell-based; conditions: for SARS-CoV-2 spike driven entry, Mean (0 nM = 100): Fig. 5b
[4] = test system: lentiviral pseudoparticles carrying SARS-CoV-2 Delta (B.1.617.2) spike, Caco-2 cells; assay type: cell-based; conditions: for SARS-CoV-2 spike driven entry, Mean (0 nM = 100): Fig. 5d
[5] = test system: SARS-CoV-2 Alpha (B.1.1.7), Caco-2 cells; assay type: cell-based; conditions: Fig. 6c; compound 32 nM; VOC Alpha

T3 sequence (P00742 235-488 limits assumed): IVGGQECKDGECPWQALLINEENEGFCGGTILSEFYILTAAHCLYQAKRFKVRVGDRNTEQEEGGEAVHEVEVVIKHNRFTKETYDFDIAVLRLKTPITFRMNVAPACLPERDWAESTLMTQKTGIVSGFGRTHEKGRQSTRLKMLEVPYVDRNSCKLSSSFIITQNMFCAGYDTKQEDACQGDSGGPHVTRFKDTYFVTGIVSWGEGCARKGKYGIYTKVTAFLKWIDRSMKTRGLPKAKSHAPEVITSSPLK
T3 sequence (P00742 41-179 partner limits assumed): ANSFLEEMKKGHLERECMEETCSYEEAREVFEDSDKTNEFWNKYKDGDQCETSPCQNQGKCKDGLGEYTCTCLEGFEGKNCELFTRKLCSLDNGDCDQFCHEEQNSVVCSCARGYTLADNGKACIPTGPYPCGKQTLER

Substance: ace-Arg-Pro-Arg-kbt [Compound 2]
- matriptase activity, Mean (Fig. 2b) ([1]; 0.1 nM): 101.198
- matriptase activity, Mean (Fig. 2b) ([1]; 0.2 nM): 106.445
- matriptase activity, Mean (Fig. 2b) ([1]; 1 nM): 70.3881
- matriptase activity, Mean (Fig. 2b) ([1]; 10 nM): 45.9032
- matriptase activity, Mean (Fig. 2b) ([1]; 100 nM): 8.529
- matriptase activity, Mean (Fig. 2b) ([1]; 1000 nM): 0.7667
- matriptase activity, Mean (Fig. 2b) ([1]; 50000 nM): -0.2875
- matriptase activity, Mean (Fig. 2b) ([1]; 500000 nM): -0.6229
- Ki ([1]; 30 min preincubation, substrate Boc-Gln-Ala-Arg-AMC): 3.3 nM
- Selectivity index Matriptase ([1]; quotient Ki matriptase / Ki TMPRSS2): 0.9
- thrombin activity, Mean (Fig. 2c) ([2]; 0.02 nM): 98.5684
- thrombin activity, Mean (Fig. 2c) ([2]; 0.04 nM): 95.6033
- thrombin activity, Mean (Fig. 2c) ([2]; 0.2 nM): 102.761
- thrombin activity, Mean (Fig. 2c) ([2]; 2 nM): 99.4379
- thrombin activity, Mean (Fig. 2c) ([2]; 20 nM): 100.358
- thrombin activity, Mean (Fig. 2c) ([2]; 200 nM): 86.605
- thrombin activity, Mean (Fig. 2c) ([2]; 10000 nM): 11.4518
- thrombin activity, Mean (Fig. 2c) ([2]; 100000 nM): -13.8043
- Ki ([2]; 30 min preincubation, substrate D-Phe-Homopro-Arg-pNA): 599 nM
- Selectivity index Thrombin ([2]; quotient Ki thrombin / Ki TMPRSS2): 158
- factor Xa activity, Mean (Fig. 2d) (factor Xa; 0.02 nM): 109.27
- factor Xa activity, Mean (Fig. 2d) (factor Xa; 0.04 nM): 100.653
- factor Xa activity, Mean (Fig. 2d) (factor Xa; 0.2 nM): 101.827
- factor Xa activity, Mean (Fig. 2d) (factor Xa; 2 nM): 97.7797
- factor Xa activity, Mean (Fig. 2d) (factor Xa; 20 nM): 88.6416
- factor Xa activity, Mean (Fig. 2d) (factor Xa; 200 nM): 49.7393
- factor Xa activity, Mean (Fig. 2d) (factor Xa; 10000 nM): 7.702
- factor Xa activity, Mean (Fig. 2d) (factor Xa; 100000 nM): 2.742
- Ki (factor Xa; 30 min preincubation, substrate Bz-Ile-Glu-Gly-Arg-pNA): 107 nM
- Selectivity index Factor Xa (factor Xa; quotient Ki factor Xa / Ki TMPRSS2): 28.1
- IC50 ([3]; Caco-2 cells, luciferase 2 days post transduction, read-out: IC50 pseudotyped lentivirus Alpha): 390 nM
- SARS-CoV-2 spike driven entry, Mean (0 nM = 100) ([3]; compound 3.2 nM): 80.3695
- SARS-CoV-2 spike driven entry, Mean (0 nM = 100) ([3]; compound 16 nM): 86.8245
- SARS-CoV-2 spike driven entry, Mean (0 nM = 100) ([3]; compound 80 nM): 66.7955
- SARS-CoV-2 spike driven entry, Mean (0 nM = 100) ([3]; compound 400 nM): 63.0945
- SARS-CoV-2 spike driven entry, Mean (0 nM = 100) ([3]; compound 2000 nM): 24.7885
- SARS-CoV-2 spike driven entry, Mean (0 nM = 100) ([3]; compound 10000 nM): 4.5995
- SARS-CoV-2 spike driven entry, Mean (0 nM = 100) ([3]; compound 50000 nM): 0.953
- IC50 ([4]; Caco-2 cells, luciferase 2 days post transduction, read-out: IC50 pseudotyped lentivirus Delta): 627 nM
- SARS-CoV-2 spike driven entry, Mean (0 nM = 100) ([4]; compound 3.2 nM): 94.6384
- SARS-CoV-2 spike driven entry, Mean (0 nM = 100) ([4]; compound 16 nM): 93.9983
- SARS-CoV-2 spike driven entry, Mean (0 nM = 100) ([4]; compound 80 nM): 82.6624
- SARS-CoV-2 spike driven entry, Mean (0 nM = 100) ([4]; compound 400 nM): 60.9224
- SARS-CoV-2 spike driven entry, Mean (0 nM = 100) ([4]; compound 2000 nM): 29.6704
- SARS-CoV-2 spike driven entry, Mean (0 nM = 100) ([4]; compound 10000 nM): 4.245
- SARS-CoV-2 spike driven entry, Mean (0 nM = 100) ([4]; compound 50000 nM): 0.86
- SARS-CoV-2 infection, Mean (0 nM = 100) [5]: 106.285
